Assay results reported in ChEMBL document CHEMBL3407405 (J Med Chem, 2015).
pEC50: −log10 of the molar value.

Legend:
Estrogen receptor beta [1] = target: T1, Estrogen receptor beta (Homo sapiens, UniProt Q92731); assay: Displacement of [3H]estradiol from human full-length ERbeta after 18 to 24 hrs by relative binding affinity/competitive radiometric binding assay relative to estradiol; conditions: concentration not given here
[2] = target: T2, Estrogen receptor (Homo sapiens) (UniProt P03372); assay: Displacement of [3H]estradiol from human full-length ERalpha after 18 to 24 hrs by relative binding affinity/competitive radiometric binding assay relative to estradiol; conditions: concentration not given here
T2 sequence (whole entry): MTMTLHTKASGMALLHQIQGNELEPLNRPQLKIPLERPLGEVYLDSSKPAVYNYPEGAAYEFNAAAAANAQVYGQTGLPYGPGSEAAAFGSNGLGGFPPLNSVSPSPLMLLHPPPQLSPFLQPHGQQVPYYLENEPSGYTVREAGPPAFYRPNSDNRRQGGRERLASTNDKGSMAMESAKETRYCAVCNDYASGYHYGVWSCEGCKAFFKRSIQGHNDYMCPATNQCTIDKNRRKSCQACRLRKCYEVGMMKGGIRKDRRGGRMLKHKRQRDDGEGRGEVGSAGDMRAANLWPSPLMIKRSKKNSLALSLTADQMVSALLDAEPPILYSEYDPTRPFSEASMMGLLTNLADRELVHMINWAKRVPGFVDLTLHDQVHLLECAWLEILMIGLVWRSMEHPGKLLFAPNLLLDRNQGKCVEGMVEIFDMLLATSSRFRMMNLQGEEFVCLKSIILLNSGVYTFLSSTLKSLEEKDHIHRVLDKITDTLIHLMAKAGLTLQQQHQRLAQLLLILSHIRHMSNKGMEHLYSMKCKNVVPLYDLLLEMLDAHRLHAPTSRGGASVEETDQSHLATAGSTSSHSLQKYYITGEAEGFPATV

Estrogen receptor beta [3] = target: T1, Estrogen receptor beta
Description: Agonist activity at human ERbeta expressed in human HEC1 cells assessed as transcriptional activation after 24 hrs by ERE-luciferase reporter gene transfection assay

Estrogen receptor beta [4] = target: T1, Estrogen receptor beta; remark: listed apart in the source
Description: Agonist activity at human ERbeta in human MCF7 cells assessed as otubain 2 endogenous genes activation after 24 hrs by qPCR

Estrogen receptor [5] = target: T3, Estrogen receptor (Homo sapiens, UniProt P03372)
T3 sequence (P03372 whole entry): T2 sequence (whole entry)
Description: Agonist activity at human ERalpha expressed in human HEC1 cells assessed as transcriptional activation after 24 hrs by ERE-luciferase reporter gene transfection assay

Estrogen receptor [6] = target: T3, Estrogen receptor; remark: listed apart in the source
Description: Agonist activity at human ERalpha in human MCF7 cells assessed as progesterone receptor endogenous genes activation after 24 hrs by qPCR

T1 sequence (Q92731 whole entry): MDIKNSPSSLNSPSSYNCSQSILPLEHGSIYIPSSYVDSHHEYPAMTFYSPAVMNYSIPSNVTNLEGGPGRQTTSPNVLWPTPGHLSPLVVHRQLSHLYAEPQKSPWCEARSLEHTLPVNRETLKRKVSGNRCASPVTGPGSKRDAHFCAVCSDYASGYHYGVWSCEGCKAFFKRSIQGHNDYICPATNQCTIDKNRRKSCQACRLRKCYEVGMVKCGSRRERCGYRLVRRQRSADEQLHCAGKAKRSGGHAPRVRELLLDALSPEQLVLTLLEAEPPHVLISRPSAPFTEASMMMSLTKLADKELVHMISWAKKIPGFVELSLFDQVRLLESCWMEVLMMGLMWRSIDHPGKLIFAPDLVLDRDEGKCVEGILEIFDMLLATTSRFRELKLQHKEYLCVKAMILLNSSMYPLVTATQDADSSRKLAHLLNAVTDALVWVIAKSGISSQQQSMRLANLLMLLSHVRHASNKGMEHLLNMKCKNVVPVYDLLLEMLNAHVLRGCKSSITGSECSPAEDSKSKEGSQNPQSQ

Structure (SMILES) | inhibition (Estrogen receptor beta [1]) | inhibition [2] | pEC50 (Estrogen receptor beta [3]) | pEC50 (Estrogen receptor beta [4]) | pEC50 (Estrogen receptor [5]) | pEC50 (Estrogen receptor [6])
CC/C(=N\O)c1cc(-c2ccc(O)cc2)ccc1O | 46% | 3% | – | – | – | –
C/C(=N\O)c1cc(-c2ccc(F)cc2)ccc1O | 0.015% | < 0.005% | – | – | – | –
COc1ccc(-c2ccc(O)c(/C(C)=N/O)c2)cc1Cl | < 0.005% | < 0.005% | – | – | – | –
C/C(=N\O)c1cc(-c2ccc(O)c(F)c2)ccc1O | 12% | 0.16% | 7.83 | 7.46 | 6.71 | 5.68
C/C(=N\O)c1cc(-c2ccc(O)c(Cl)c2)ccc1O | 1.1% | 0.033% | – | – | – | –
CC/C(=N\O)c1cc(-c2ccc(O)c(F)c2)ccc1O | 49% | 1.9% | – | – | – | –
C/C(=N\O)c1cc(-c2ccc(Cl)cc2)ccc1O | 0.099% | < 0.005% | – | – | – | –
C/C(=N\O)c1cc(-c2ccc(O)c(C)c2)ccc1O | 1.6% | 0.1% | – | – | – | –
COc1ccc(-c2ccc(O)c(/C(C)=N/O)c2)cc1C | < 0.005% | < 0.005% | – | – | – | –
O/N=C(/c1cc(-c2ccc(O)cc2)ccc1O)C(F)(F)F | 0.76% | 0.036% | – | – | – | –
COc1ccc(-c2ccc(O)c(/C(C)=N/O)c2)cc1F | < 0.005% | < 0.005% | – | – | – | –
C/C(=N\O)c1cc(-c2ccc(O)cc2)ccc1O | 46% | 0.54% | 8.40 | 7.90 | 7.53 | 7.08
COc1ccc(-c2ccc(O)c(/C(C)=N/O)c2)cc1 | 0.011% | < 0.005% | – | – | – | –
